According to PubChem BioAssay (NCI):
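Method: 48-hour compound exposure of cells in 96-well plates, five concentrations, linear interpolation of endpoints. At the GI50, growth is halved. At the TGI there is no net growth.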

Legend:
Experiment in all cases: NCI tumour cell line growth inhibition, 48 h
SR leukemia = system: SR leukemia
T-47D breast = system: T-47D breast
SK-MEL-2 melanoma = system: SK-MEL-2 melanoma
BT-549 breast = system: BT-549 breast
MDA-MB-231 breast = system: MDA-MB-231 breast
HS 578T breast = system: HS 578T breast
LOX IMVI melanoma = system: LOX IMVI melanoma
MOLT-4 leukemia = system: MOLT-4 leukemia
SF-539 CNS = system: SF-539 CNS
TK-10 renal = system: TK-10 renal
CCRF-CEM leukemia = system: CCRF-CEM leukemia
MCF7 breast = system: MCF7 breast
MDA-MB-435 = system: MDA-MB-435
DU-145 prostate = system: DU-145 prostate
COLO 205 colon = system: COLO 205 colon
NCI/ADR-RES ovarian = system: NCI/ADR-RES ovarian
ACHN renal = system: ACHN renal
NCI-H23 lung = system: NCI-H23 lung
K-562 leukemia = system: K-562 leukemia
NCI-H522 lung = system: NCI-H522 lung
SF-295 CNS = system: SF-295 CNS
OVCAR-5 ovarian = system: OVCAR-5 ovarian
PC-3 prostate = system: PC-3 prostate
A549 NSCLC = system: A549 NSCLC
IGROV1 ovarian = system: IGROV1 ovarian
MALME-3M melanoma = system: MALME-3M melanoma
HOP-92 NSCLC = system: HOP-92 NSCLC
OVCAR-3 ovarian = system: OVCAR-3 ovarian
SF-268 CNS = system: SF-268 CNS
OVCAR-4 ovarian = system: OVCAR-4 ovarian
OVCAR-8 ovarian = system: OVCAR-8 ovarian
U251 CNS = system: U251 CNS
SNB-19 CNS = system: SNB-19 CNS
SN12C renal = system: SN12C renal
786-0 renal = system: 786-0 renal
HCT-116 colon = system: HCT-116 colon
HCC-2998 colon = system: HCC-2998 colon
NCI-H460 lung = system: NCI-H460 lung
HL-60(TB) leukemia = system: HL-60(TB) leukemia
RPMI-8226 leukemia = system: RPMI-8226 leukemia
SK-MEL-5 melanoma = system: SK-MEL-5 melanoma
NCI-H226 lung = system: NCI-H226 lung
HT29 colon = system: HT29 colon
M14 melanoma = system: M14 melanoma
UACC-257 melanoma = system: UACC-257 melanoma
A498 renal = system: A498 renal
KM12 colon = system: KM12 colon
SW-620 colon = system: SW-620 colon
SNB-75 CNS = system: SNB-75 CNS
UO-31 renal = system: UO-31 renal
SK-MEL-28 melanoma = system: SK-MEL-28 melanoma
HOP-62 NSCLC = system: HOP-62 NSCLC
HCT-15 colon = system: HCT-15 colon
SK-OV-3 ovarian = system: SK-OV-3 ovarian
RXF 393 renal = system: RXF 393 renal
CAKI-1 renal = system: CAKI-1 renal
UACC-62 melanoma = system: UACC-62 melanoma

CC(C)c1cc(-c2n[nH]c(=O)n2-c2ccc3c(ccn3C)c2)c(O)cc1O
GI50 (SR leukemia): < 0.01 µM | TGI (SR leukemia): 35 µM | GI50 (T-47D breast): < 0.0287 µM | TGI (T-47D breast): 34.5 µM | TGI (SK-MEL-2 melanoma): 25.7 µM | GI50 (BT-549 breast): 1.87 µM | TGI (BT-549 breast): 44.3 µM | GI50 (MDA-MB-231 breast): < 0.023 µM | TGI (MDA-MB-231 breast): 7.52 µM | GI50 (HS 578T breast): 0.682 µM | TGI (HS 578T breast): 90.1 µM | GI50 (LOX IMVI melanoma): 0.0238 µM | TGI (LOX IMVI melanoma): 0.0661 µM | GI50 (MOLT-4 leukemia): < 0.0177 µM | GI50 (SF-539 CNS): < 0.0279 µM | TGI (SF-539 CNS): 21.8 µM | GI50 (TK-10 renal): < 0.0271 µM | TGI (TK-10 renal): 37 µM | GI50 (CCRF-CEM leukemia): < 0.0174 µM | TGI (CCRF-CEM leukemia): > 40.5 µM | GI50 (MCF7 breast): < 0.0161 µM | TGI (MCF7 breast): 17.3 µM | GI50 (MDA-MB-435): < 0.0191 µM | TGI (MDA-MB-435): 15.6 µM | GI50 (DU-145 prostate): < 0.0237 µM | TGI (DU-145 prostate): 23 µM | GI50 (COLO 205 colon): 0.0259 µM | TGI (COLO 205 colon): 0.981 µM | GI50 (NCI/ADR-RES ovarian): 0.0409 µM | TGI (NCI/ADR-RES ovarian): > 100 µM | GI50 (ACHN renal): < 0.0209 µM | TGI (ACHN renal): > 43.1 µM | GI50 (NCI-H23 lung): 0.0247 µM | TGI (NCI-H23 lung): 26.7 µM | GI50 (K-562 leukemia): < 0.0123 µM | TGI (K-562 leukemia): > 100 µM | GI50 (NCI-H522 lung): < 0.0205 µM | TGI (NCI-H522 lung): 17.1 µM | GI50 (SF-295 CNS): < 0.0215 µM | TGI (SF-295 CNS): 0.796 µM | GI50 (OVCAR-5 ovarian): 0.147 µM | TGI (OVCAR-5 ovarian): > 48.4 µM | GI50 (PC-3 prostate): < 0.0224 µM | TGI (PC-3 prostate): 49.6 µM | GI50 (A549 NSCLC): < 0.0204 µM | TGI (A549 NSCLC): > 71.3 µM | GI50 (IGROV1 ovarian): < 0.0225 µM | TGI (IGROV1 ovarian): 24.8 µM | GI50 (MALME-3M melanoma): < 0.0167 µM | TGI (MALME-3M melanoma): < 0.031 µM | GI50 (HOP-92 NSCLC): < 0.0169 µM | TGI (HOP-92 NSCLC): 0.0484 µM | GI50 (OVCAR-3 ovarian): < 0.0237 µM | TGI (OVCAR-3 ovarian): 19.4 µM | GI50 (SF-268 CNS): 9.69 µM | TGI (SF-268 CNS): 38.9 µM | GI50 (OVCAR-4 ovarian): 13 µM | TGI (OVCAR-4 ovarian): > 86.1 µM | GI50 (OVCAR-8 ovarian): < 0.0232 µM | TGI (OVCAR-8 ovarian): > 83.7 µM | GI50 (U251 CNS): < 0.0257 µM | TGI (U251 CNS): 18 µM | GI50 (SNB-19 CNS): < 0.0236 µM | TGI (SNB-19 CNS): > 48.5 µM | GI50 (SN12C renal): < 0.0222 µM | TGI (SN12C renal): > 52.2 µM | GI50 (786-0 renal): 0.0686 µM | TGI (786-0 renal): 45.4 µM | GI50 (HCT-116 colon): < 0.0141 µM | TGI (HCT-116 colon): 13.5 µM | GI50 (HCC-2998 colon): 0.0256 µM | TGI (HCC-2998 colon): 2.77 µM | GI50 (NCI-H460 lung): < 0.0157 µM | TGI (NCI-H460 lung): 13.9 µM | GI50 (HL-60(TB) leukemia): < 0.01 µM | TGI (HL-60(TB) leukemia): 21.8 µM | GI50 (RPMI-8226 leukemia): < 0.0218 µM | TGI (RPMI-8226 leukemia): 31.3 µM | GI50 (SK-MEL-5 melanoma): < 0.0207 µM | TGI (SK-MEL-5 melanoma): 13.9 µM | GI50 (NCI-H226 lung): 0.286 µM | TGI (NCI-H226 lung): 60.1 µM | GI50 (HT29 colon): 0.0423 µM | TGI (HT29 colon): 12.5 µM | GI50 (M14 melanoma): < 0.0198 µM | TGI (M14 melanoma): 21.1 µM | GI50 (UACC-257 melanoma): < 0.0195 µM | TGI (UACC-257 melanoma): 30.6 µM | GI50 (A498 renal): 0.0534 µM | TGI (A498 renal): 14 µM | GI50 (KM12 colon): 0.0221 µM | TGI (KM12 colon): 0.062 µM | GI50 (SW-620 colon): < 0.013 µM | TGI (SW-620 colon): 24.5 µM | GI50 (SNB-75 CNS): 1.58 µM | TGI (SNB-75 CNS): 97.7 µM | GI50 (UO-31 renal): < 0.0218 µM | TGI (UO-31 renal): > 65.2 µM | GI50 (SK-MEL-28 melanoma): < 0.0215 µM | TGI (SK-MEL-28 melanoma): 17.2 µM | GI50 (HOP-62 NSCLC): 0.0794 µM | TGI (HOP-62 NSCLC): 31.8 µM | GI50 (HCT-15 colon): < 0.02 µM | TGI (HCT-15 colon): > 47.7 µM | GI50 (SK-OV-3 ovarian): < 0.0132 µM | TGI (SK-OV-3 ovarian): > 43.5 µM | GI50 (RXF 393 renal): < 0.0304 µM | TGI (RXF 393 renal): 21.5 µM | GI50 (CAKI-1 renal): 0.0479 µM | TGI (CAKI-1 renal): > 71.5 µM | GI50 (UACC-62 melanoma): < 0.0173 µM | TGI (UACC-62 melanoma): 0.224 µM
